pIC50: −log10 of the molar value. Where “and” joins values, the source holds several entries; their conditions need not be identical. Equal values may be shown once.
Test system: 323965-272-R-J2-PDC complex spheroid viability
Assay: Anticancer human tumor 323965-272-R-J2-PDC patient-derived pancreatic carcinoma cell line growth inhibition [CLK]
Conditions: for viability, T/C: stronger effect = lower value; for pIC50: curve of compound; active = viability on the fitted dose curve at most 10% of control; inactive = the rest
Excerpt: A high-throughput screen of multi-cell type tumor spheroids was designed to identify active combinations of […] and targeted small molecules. Complex spheroids include a stromal component modeled by human endothelial cells (HUVEC) and fibroblasts modeled by human mesenchymal stem cells (MSCs). The concentration ranges selected for each drug and investigational agent were based upon clinically achievable concentrations if the clinical Cmax of the agent was known.
Compounds. The drugs and investigational agents: cirtuvivint (SM08502; NSC835563), CC-671 (NSC850746), vemurafenib (NSC761431), tapotoclax (NSC804041), sotorasib (NSC818433), adagrasib (NSC831453), MRTX-1133 (NSC836407), BAY2416964 (NSC825713), copanlisib (NSC816437), inavolisib (NSC800729), abemaciclib (NSC768073), osimertinib (NSC779217), entinostat (NSC756642), eltanexor (KPT-8602, NSC794443), venetoclax (NSC766270), ceralasertib (NSC777638), bortezomib (NSC756655), olaparib (NSC753686), talazoparib (NSC767125), alisertib (NSC759677), peposertib (NSC802822), gemcitabine (NSC613327), 5-fluorouracil (NSC19893), SN-38 (NSC673596), oxaliplatin (NSC266046), paclitaxel (NSC125973), and doxorubicin (NSC123127), were obtained from the National Cancer Institute (NCI) Developmental Therapeutics Program Chemical Repository. The FDA-approved anticancer drug set is available from the Developmental Therapeutics Program at https://dtp.cancer.gov/organization/dscb/obtaining/available plates.htm. […] The stock solutions were prepared in dimethyl sulfoxide (DMSO, Sigma-Aldrich, St. Louis, MO, cat. D2650), except for the platinum complexes which were prepared in saline (Quality Biological, Gaithersburg, MD, cat. 114-055-101), at 800-fold the tested concentration and stored at -70 degrees C prior to their use. All drugs and investigational agents were tested over a range starting from a high concentration at or near the clinical Cmax and decreasing in half-log increments. If the clinical Cmax for an agent had not been determined, the highest concentration tested was 10 microM.
Cell Culture. All cells were maintained in an incubator at 37 degrees C and 5% CO2 with 95% humidity. The PDC lines were cultured according to standard operating procedures established by the NCI PDMR. Briefly, all PDCs were thawed and cultured in Matrigel-coated flasks prepared with a working solution of 1X Ham's F-12 nutrient mix, without supplementation (Invitrogen, Waltham, MA, cat. 11765054), 100 U/mL penicillin-streptomycin (Invitrogen, cat. 15140122), and 2.5% Matrigel (Corning Inc., Corning, NY, cat. 354248) for the first three passages. The 947758-054-R-J2-PDC line was cultured in 6B/Colon 1A media, which includes advanced DMEM/F-12 (Thermo Fisher Scientific, cat. 12634028), 10 mM HEPES (Thermo Fisher Scientific, cat. 15630080), 1X GlutaMAX supplement (Thermo Fisher Scientific, cat. 35050061), 0.1 mg/mL primocin (InvivoGen, cat. ant-pm-2), 10% defined fetal bovine serum, heat inactivated (HyClone Laboratories Inc., cat. SH30070.03HI), 1.25 mM N-Acetyl-L-cysteine (Sigma-Aldrich, cat. A9165), 10 mM nicotinamide (Sigma-Aldrich, cat. N0636), 1X B-27 supplement (Thermo Fisher Scientific, cat. 17504044), 1X N-2 supplement (Thermo Fisher Scientific, cat. 17502048), and 10 microM Y-27632 dihydrochloride (Tocris Bioscience, cat. 1254). The 876862-298-R-J1-PDC was cultured in 6E media, which includes all 6B/Colon 1A media components plus 50% L-WRN conditioned media (ATCC, cat. CRL-3276), 50 ng/mL recombinant human EGF recombinant protein (hEGF; Thermo Fisher Scientific, cat. PHG0311), 10 ng/mL recombinant human fibroblast growth factor 10 (hGFG-10; PeproTech, cat. 100-26), 1 ng/mL recombinant human fibroblast growth factor 2 (hFGF-2; PeproTech, cat. 100-18B), and 1 µM prostaglandin E2 (PGE2; Tocris, cat. 2296). The 227483-062-R1-J1-PDC line was cultured in Panc media, containing all 6E components except hFGF-2, with the addition of 500 nM SB-431542 (Selleckchem, cat. S1067) and 10 nM gastrin (Tocris, cat. 3006). […]
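Note: spheroids exposed to agents for seven days before readout.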
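Throughout, for viability, T/C: percent of DMSO vehicle control wells so 100% = untreated growth.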

CCN1CCN(Cc2ccc(Nc3ncc(F)c(-c4cc(F)c5nc(C)n(C(C)C)c5c4)n3)nc2)CC1
inactive: viability, T/C (compound 0.00316 µM) 91.3% and 105% | viability, T/C (compound 0.01 µM) 95.6% and 95% | viability, T/C (compound 0.0316 µM) 81.2% and 68.3% | viability, T/C (compound 0.1 µM) 67.5% and 69.9% | viability, T/C (compound 0.316 µM) 73.3% and 68.3% | viability, T/C (compound 1 µM) 72.3% and 68.7%
< 6.00: pIC50

CCc1c2c(nc3ccc(O)cc13)-c1cc3c(c(=O)n1C2)COC(=O)[C@]3(O)CC
7.99 and 8.07: pIC50
inactive: viability, T/C (compound 0.00316 µM) 90.2% and 92.5% | viability, T/C (compound 0.01 µM) 49.5% and 42.7% | viability, T/C (compound 0.0316 µM) 34.2% and 29.5% | viability, T/C (compound 0.1 µM) 35.9% and 30.6% | viability, T/C (compound 0.316 µM) 26.4% and 30.6% | viability, T/C (compound 1 µM) 26.2% and 20.2%

CN1CCN(c2cc(C(=O)Nc3cc4cc(-c5cnn(C)c5)ccc4cn3)ccn2)CC1
active: viability, T/C (compound 1 µM) 4.53% [middle of 12 runs] | viability, T/C (compound 3.16 µM) 4.75% [middle of 12 runs] | viability, T/C (compound 10 µM) 4.22% [middle of 11 runs]
inactive: viability, T/C (compound 0.0316 µM) 98.9% [middle of 12 runs] | viability, T/C (compound 0.1 µM) 70% [middle of 12 runs] | viability, T/C (compound 0.316 µM) 28.1% [middle of 12 runs]
174 nM [middle of 10 runs]: IC50 (compound alone, run of 08/14/2023)

COC1C=CCC(C)C(C)S(=O)(=O)NC(=O)c2ccc3c(c2)N(CC2CCC21)CC1(CCCc2cc(Cl)ccc21)CO3 (configuration not stated)
5.79 and 5.44: pIC50
inactive: viability, T/C (compound 0.0316 µM) 111% and 91.1% | viability, T/C (compound 0.1 µM) 108% and 91.9% | viability, T/C (compound 0.316 µM) 77.9% and 80.8% | viability, T/C (compound 1 µM) 61.1% and 61.5% | viability, T/C (compound 3.16 µM) 37.5% and 61% | viability, T/C (compound 10 µM) 10.5% and 25.6%

COc1c(OCCCN2CCOCC2)ccc2c3n(c(=NC(=O)c4cnc(N)nc4)nc12)CCN3
7.08 and 7.32: pIC50
inactive: viability, T/C (compound 0.00316 µM) 98.5% and 103% | viability, T/C (compound 0.01 µM) 80.8% and 72.1% | viability, T/C (compound 0.0316 µM) 62% and 54.2% | viability, T/C (compound 0.1 µM) 46.6% and 45.2% | viability, T/C (compound 0.316 µM) 38.4% and 31% | viability, T/C (compound 1 µM) 27.7% and 21.9%

Cn1ncnc1[C@H]1c2n[nH]c(=O)c3cc(F)cc(c23)N[C@@H]1c1ccc(F)cc1
inactive: viability, T/C (compound 0.000316 µM) 108% and 106% | viability, T/C (compound 0.001 µM) 108% and 97.8% | viability, T/C (compound 0.00316 µM) 101% and 105% | viability, T/C (compound 0.01 µM) 104% and 99.3% | viability, T/C (compound 0.0316 µM) 114% and 94.7% | viability, T/C (compound 0.1 µM) 83.6% and 74.6%
< 7.00: pIC50

NC(=O)C(=Cn1cnc(-c2cc(C(F)(F)F)cc(C(F)(F)F)c2)n1)c1cncnc1
inactive: viability, T/C (compound 0.00949 µM) 97.4% and 105% | viability, T/C (compound 0.03 µM) 109% and 91.9% | viability, T/C (compound 0.0949 µM) 74.2% and 75.9% | viability, T/C (compound 0.3 µM) 64.3% and 66.8% | viability, T/C (compound 0.949 µM) 69.2% and 61.7% | viability, T/C (compound 3 µM) 38.3% and 28.5%
5.77 and 5.97: pIC50

Nc1ccccc1NC(=O)c1ccc(CNC(=O)OCc2cccnc2)cc1
5.03 and 5.16: pIC50
inactive: viability, T/C (compound 0.0316 µM) 115% and 110% | viability, T/C (compound 0.1 µM) 103% and 104% | viability, T/C (compound 0.316 µM) 101% and 95.5% | viability, T/C (compound 1 µM) 89.1% and 86.3% | viability, T/C (compound 3.16 µM) 72.6% and 61.8% | viability, T/C (compound 10 µM) 47.9% and 43.9%

Nc1ccn(C2OC(CO)C(O)C2(F)F)c(=O)n1 (configuration not stated)
> 7.50: pIC50
inactive: viability, T/C (compound 0.0316 µM) 30.7% and 33.9% | viability, T/C (compound 0.1 µM) 35.3% and 38.5% | viability, T/C (compound 0.316 µM) 30% and 29.5% | viability, T/C (compound 1 µM) 37.3% and 32.3% | viability, T/C (compound 3.16 µM) 32.7% and 31.5% | viability, T/C (compound 10 µM) 28.6% and 33.3%

O=C(c1cc(Cc2n[nH]c(=O)c3ccccc23)ccc1F)N1CCN(C(=O)C2CC2)CC1
< 5.00: pIC50
inactive: viability, T/C (compound 0.0316 µM) 105% and 107% | viability, T/C (compound 0.1 µM) 103% and 102% | viability, T/C (compound 0.316 µM) 100% and 98.1% | viability, T/C (compound 1 µM) 103% and 90.2% | viability, T/C (compound 3.16 µM) 108% and 107% | viability, T/C (compound 10 µM) 84.3% and 81.5%

O=c1[nH]cc(F)c(=O)[nH]1
< 5.00: pIC50
inactive: viability, T/C (compound 0.0316 µM) 116% and 95.3% | viability, T/C (compound 0.1 µM) 105% and 91.3% | viability, T/C (compound 0.316 µM) 111% and 103% | viability, T/C (compound 1 µM) 96.9% and 96.8% | viability, T/C (compound 3.16 µM) 67.9% and 76.6% | viability, T/C (compound 10 µM) 51.1% and 52.5%
